We go through 15 compounds from patent US6528510B1, “HIV protease inhibitors” (Warner-Lambert Company, priority 1998, dated 2003).

Series [1] addresses T1, Recombinant HIV-1 protease (Human immunodeficiency virus type 1 group M subtype B, UniProt P04585).
T1 construct: Recombinant HIV-1 protease (>96% purity); purchased Bachem Bioscience, Inc. (King of Prussia, Pa.)
Briefly: HIV protease assay (Ki determination, HPLC readout of substrate III cleavage). Format: biochemical. The method, then:
Recombinant HIV-1 protease (>96% purity) and HIV protease substrate III (the undecapeptide H-His-Lys-Ala-Arg-Val-Leu-Nph-Glu-Ala-Nle-Ser-NH2, 97% purity) were purchased from Bachem Bioscience, Inc. (King of Prussia, Pa.).
The methods employed follow the procedures of Tummino, et al., Archives of Biochemistry and Biophysics, 1995;316:523). […] (total volume, […]). […] The final inhibitor concentrations used were 0 (0.1, 0.2, in some experiments), 0.5, 1, 2, 5, 10, 20, 50, and 100 μM. The solution was mixed, incubated for 5 minutes and the reaction quenched by addition of trifluoracetic acid, 2% final. The (leu-p-nitro-phe) bond of the substrate is cleaved by the enzyme and substrate arid products separated by reverse-phase HPLC. Absorbance was measured at 220 nm, peak areas determined, and percentage conversion to product used to calculate percentage control (=[% conversion (+inhibitor)/% conversion (−inhibitor)]×100).

For series [2], the system named is HIV infected lymphocyte derived CEM cells. Briefly: Cellular infection assay in CEM cells, XTT cytopathic procedure (EC50). The note with it: for TI (therapeutic index, TC50/EC50): CEM cells; for EC50: Human immunodeficiency virus 1, CCRF-CEM, read-out: Antiviral Efficacy EC50. The method, then: (§1) Compound concentrations were 0.32, 1, 3.2, 10, 32, and 100 uM.
A short description of series [3]: Cellular toxicity in uninfected CEM cells, XTT (TC50). The note with it: human, uninfected CEM cells (lymphocyte derived). As for the experimental part:
as §1
Background: Tetrazolium dyes change colour on reduction, which living cells bring about.

Read-outs that look alike come from different tables or passages of the source. Some results are limits rather than exact numbers.

Take `Cc1cnc(CCC2(C(C)C)CC(O)=C(Sc3cc(C)c(CO)cc3C(C)(C)C)C(=O)O2)s1` (racemic) [Example 28, 3-(2-tert-Butyl-4-hydroxymethyl-5-methyl-phenylsulfanyl)-4-hydroxy-6-isopropyl-6-[2-(5-methyl-thiazol-2-yl)-ethyl]-5,6-dihydro-pyran-2-one]: in series [1], the inhibition constant Ki amounted to 0.24 nM. In series [2], the “TI (therapeutic index, TC50/EC50)” value is 120 and the 50% effective concentration (EC50) was found to be 1900 nM. Besides, the CC50 in series [3] was 229000 nM.

Regarding `Cc1cc(SC2=C(O)CC(CCc3csc(C(C)C)n3)(C(C)C)OC2=O)c(C(C)(C)C)cc1CO` (racemic) [Example 32, 3-(2-tert-Butyl-4-hydroxymethyl-5-methyl-phenylsulfanyl)-4-hydroxy-6-isopropyl-6-[2-(2-isopropyl-thiazol-4-yl)-ethyl]-5,6-dihydro-pyran-2-one], the Ki in series [1] was found to be 1.6 nM. In series [2], the “TI (therapeutic index, TC50/EC50)” value stood at 4 and the EC50 was 23000 nM. The cytotoxic concentration (CC50) in series [3] was found to be 91000 nM.

In the case of `Cc1cc(SC2=C(O)CC(CCc3scnc3C(C)C)(C(C)C)OC2=O)c(C(C)(C)C)cc1CO` (racemic) [Example 33, 3-(2-tert-Butyl-4-hydroxymethyl-5-methyl-phenylsulfanyl)-4-hydroxy-6-isopropyl-6-[2-(4-isopropyl-thiazol-5-yl)-ethyl]-5,6-dihydro-pyran-2-one], in series [2], the “TI (therapeutic index, TC50/EC50)” value was 72 and the EC50 was 1400 nM. The compound also registered a CC50 in series [3] of 101000 nM.

In the case of `Cc1cc(SC2=C(O)CC(CCc3ccsc3)(C(C)C)OC2=O)c(C(C)(C)C)cc1N` (racemic) [Example 35, 3-(4-Amino-2-tert-butyl-5-methyl-phenylsulfanyl)-4-hydroxy-6-isopropyl-6-(2-thiophen-3-yl-ethyl)-5,6-dihydro-pyran-2-one], the inhibition constant Ki in series [1] was 0.88 nM. Further, in series [2], the “TI (therapeutic index, TC50/EC50)” value is reported as 48 and the concentration for a half-maximal effect (EC50) was found to be 1500 nM. The same compound had a 50% cytotoxic concentration (CC50) in series [3] of 72000 nM.

For the compound `Cc1cc(SC2=C(O)CC(CCc3ccc(CO)s3)(C(C)C)OC2=O)c(C(C)(C)C)cc1O` (racemic) [Example 37, 3-(2-tert-Butyl-4-hydroxy-5-methyl-phenylsulfanyl)-4-hydroxy-6-[2-(5-hydroxymethyl-thiophen-2-yl)-ethyl]-6-isopropyl-5,6-dihydro-pyran-2-one], in series [1], the inhibition constant (Ki) is 0.37 nM. For the same compound, in series [2], the “TI (therapeutic index, TC50/EC50)” value worked out at 24 and the EC50 is 4200 nM. This compound had a CC50 in series [3] of 100000 nM.

For the compound `Cc1cc(SC2=C(O)CC(CCc3ccc(CO)s3)(C(C)C)OC2=O)c(C(C)(C)C)cc1N` (racemic) [Example 38, 3-(4-Amino-2-tert-butyl-5-methyl-phenylsulfanyl)-4-hydroxy-6-[2-(5-hydroxymethyl-thiophen-2-yl)-ethyl]-6-isopropyl-5,6-dihydro-pyran-2-one], the inhibition constant Ki in series [1] came out at 0.33 nM. In addition, in series [2], the “TI (therapeutic index, TC50/EC50)” value is on record as 113 and the EC50 was 1100 nM. For the same compound, in series [3], the cytotoxic concentration (CC50) is 124000 nM.

On to `Cc1cc(SC2=C(O)CC(CCc3cc[nH]n3)(C(C)C)OC2=O)c(C(C)(C)C)cc1CO` (racemic) [Example 40, 3-(2-tert-Butyl-4-hydroxymethyl-5-methyl-phenylsulfanyl)-4-hydroxy-6-isopropyl-6-[2-(1H-pyrazol-3-yl)-ethyl]-5,6-dihydro-pyran-2-one], for which, in series [1], the Ki worked out at 0.28 nM. In series [2], the “TI (therapeutic index, TC50/EC50)” value is reported as over 57 and the EC50 turned out to be 5600 nM. In series [3], this compound returned a CC50 of over 320000 nM.

Consider `Cc1cc(SC2=C(O)CC(CCc3cncnc3)(C(C)C)OC2=O)c(C(C)(C)C)cc1CO` (racemic) [Example 42, 3-(2-tert-Butyl-4-hydroxymethyl-5-methyl-phenylsulfanyl)-4-hydroxy-6-isopropyl-6-(2-pyrimidin-5-yl-ethyl)-5,6-dihydro-pyran-2-one], for which, in series [2], the “TI (therapeutic index, TC50/EC50)” value was over 159 and the concentration giving a half-maximal response (EC50) came to 1300 nM. Besides, the cytotoxic concentration (CC50) in series [3] is over 200000 nM.

On to `Cc1ccc(C(C)(C)C)c(SC2=C(O)CC(CCc3ccc(CO)s3)(C(C)C)OC2=O)c1` (racemic) [Example 55, 3-(2-tert-Butyl-5-methyl-phenylsulfanyl)-4-hydroxy-6-[2-(5-hydroxymethyl-thiophen-2-yl)-ethyl]-6-isopropyl-5,6-dihydro-pyran-2-one], for which the inhibition constant (Ki) in series [1] came out at 1.7 nM. Further, in series [2], the “TI (therapeutic index, TC50/EC50)” value worked out at 8 and the EC50 was 8300 nM. The same compound displayed a CC50 in series [3] of 66000 nM.

`Cc1cc(SC2=C(O)CC(CCC3CCCO3)(C(C)C)OC2=O)c(C(C)(C)C)cc1N` (racemic) [Example 56, 3-(4-Amino-2-tert-butyl-5-methyl-phenylsulfanyl)-4-hydroxy-6-isopropyl-6-[2-(tetrahydro-furan-2-yl)-ethyl]-5,6-dihydro-pyran-2-one]: in series [1], the inhibition constant (Ki) came out at 11 nM. Besides, in series [2], the “TI (therapeutic index, TC50/EC50)” value turned out to be 21 and the 50% effective concentration (EC50) stood at 10000 nM. The CC50 in series [3] came to 210000 nM.

As to `Cc1cc(SC2=C(O)CC(CCc3ccsc3)(C(C)C)OC2=O)c(C(C)(C)C)cc1NS(=O)(=O)c1ccc(C(F)(F)F)cn1` (racemic) [Example 59, 5-Trifluoromethyl-pyridine-2-sulfonic acid {5-tert-butyl-4-[4-hydroxy-6-isopropyl-2-oxo-6-(2-thiophen-3-yl-ethyl)-5,6-dihydro-2H-pyran-3-ylsulfanyl]-2-methyl-phenyl}-amide], the Ki in series [1] came out at 0.08 nM. Also, in series [2], the “TI (therapeutic index, TC50/EC50)” value was found to be 110 and the EC50 came to 600 nM. Besides, the half-maximal cytotoxic concentration (CC50) in series [3] is 66000 nM.

For the compound `Cc1cc(SC2=C(O)CC(CCc3cccnc3)(C(C)C)OC2=O)c(C(C)(C)C)cc1CO` (stereo not shown) [Example 2, 3-(2-tert-Butyl-4-hydroxymethyl-5-methyl-phenylsulfanyl)4-hydroxy-6-isopropyl-6-(2-pyridin-3-yl-ethyl)-5,6-dihydro-pyran-2-one], in series [1] (recombinant HIV-1 protease, read-out: Inhib of HIV Protease KI), the inhibitory constant (Ki) was found to be 0.9 nM.

For `Cc1cc(SC2=C(O)C[C@@](CCc3ccccc3)(C(C)C)OC2=O)c(C(C)C)c2sc(N)nc12` [Example 17, (S)-3-(2-Amino-7-isopropyl-4-methyl-benzothiazol-6-yl-sulfanyl)-4-hydroxy-6-isopropyl-6-phenethyl-5,6-dihydro-pyran-2-one], in series [2], the “TI (therapeutic index, TC50/EC50)” value was found to be 16 and the EC50 is 2700 nM. In series [3], this compound displayed a half-maximal cytotoxic concentration (CC50) of 42000 nM.

As to `Cc1cc(SC2=C(O)C[C@@](CCc3ccc(O)cc3)(C(C)C)OC2=O)c(C(C)C)c2sc(N)nc12` [Example 18, (S)-3-(2-Amino-7-isopropyl-4-methyl-benzothiazol-6-ylsulfanyl)-4-hydroxy-6-[2-(4-hydroxyl-phenyl)-ethyl]-6-isopropyl-5,6-dihydro-pyran-2-one], in series [2], the “TI (therapeutic index, TC50/EC50)” value was 105 and the concentration giving a half-maximal response (EC50) was determined as 1100 nM. Besides, it took 117000 nM to reach half-maximal cytotoxicity in series [3] (CC50).

With `Cc1cc(SC2=C(O)CC(CCc3scnc3C)(C(C)C)OC2=O)c(C(C)(C)C)cc1CO` (stereo not shown) [Example 24, 3-(2-tert-Butyl-4-hydroxymethyl-5-methyl-phenylsulfanyl)-4-hydroxy-6-isopropyl-6-[2-(4-methyl-thiazol-5-yl)-ethyl]-5,6-dihydro-pyran-2-one], in series [2], the “TI (therapeutic index, TC50/EC50)” value is 443 and the EC50 stood at 370 nM. The midpoint of cytotoxicity in series [3], the CC50, lay at 164000 nM.

As a reminder, the Ki is a dissociation constant, usually derived from enzyme kinetics or from competition with a known ligand. By EC50 is commonly meant the concentration giving half of the maximal effect. A word on the CC50: it is the concentration that lowers cell viability or growth by half.
